Measurements: patent US20070270418A1, “Inhibitors of P38 and Methods of Using the Same” (priority 2003, published 2007)

Biological target: T1, CaMKIV (Homo sapiens, UniProt Q16566)
T1 construct: purchased Upstate (Charlottesville, Va.)
T1 sequence (Q16566 1-473): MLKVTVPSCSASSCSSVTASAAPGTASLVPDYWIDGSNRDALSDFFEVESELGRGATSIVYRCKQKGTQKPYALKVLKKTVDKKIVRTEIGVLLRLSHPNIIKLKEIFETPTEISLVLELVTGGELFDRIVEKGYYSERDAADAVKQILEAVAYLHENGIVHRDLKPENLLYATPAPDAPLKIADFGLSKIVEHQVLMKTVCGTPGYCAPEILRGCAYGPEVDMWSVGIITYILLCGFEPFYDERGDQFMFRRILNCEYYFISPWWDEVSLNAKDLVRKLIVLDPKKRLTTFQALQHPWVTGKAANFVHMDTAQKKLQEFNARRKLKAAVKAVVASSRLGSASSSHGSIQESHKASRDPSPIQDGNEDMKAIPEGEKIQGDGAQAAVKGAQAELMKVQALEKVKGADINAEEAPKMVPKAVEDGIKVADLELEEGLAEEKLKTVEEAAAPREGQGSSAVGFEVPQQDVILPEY
Test: Broad selectivity panel, 32P incorporation
Format: biochemical
Settings: 0.1 μM compound, 40 μM ATP; read-out: Percent inhibition CaMKIV
Protocol: (§1) Various compounds of the present invention are screened against a panel of 24 additional kinases (Upstate, Charlottesville, Va.). Compounds are tested 0.1 μM and 1 μM in reactions containing 40 μM ATP. Incorporation of radiolabeled phosphate (^32P) into each kinase substrate is measured in the presence and absence of test compound. Results are reported as the percent decrease in the amount of ^32P incorporated into the substrate in the presence of compound, compared to buffer control.

Compound | inhibition at 0.1 µM
CS(=O)(=O)N1CCC(Nc2nccc(-c3c(-c4ccc(F)cc4)nc4occn34)n2)CC1 [CCLXXIX] | 18%

Same assay, conditions: 1 μM compound, 40 μM ATP; read-out: Percent inhibition CaMKIV

Compound | inhibition at 1 µM
CS(=O)(=O)N1CCC(Nc2nccc(-c3c(-c4ccc(F)cc4)nc4occn34)n2)CC1 [CCLXXIX] | -2%

Biological target: T2, FGFR3 (Homo sapiens, UniProt P22607)
T2 construct: purchased Upstate (Charlottesville, Va.)
T2 sequence (P22607 23-806, species assumed): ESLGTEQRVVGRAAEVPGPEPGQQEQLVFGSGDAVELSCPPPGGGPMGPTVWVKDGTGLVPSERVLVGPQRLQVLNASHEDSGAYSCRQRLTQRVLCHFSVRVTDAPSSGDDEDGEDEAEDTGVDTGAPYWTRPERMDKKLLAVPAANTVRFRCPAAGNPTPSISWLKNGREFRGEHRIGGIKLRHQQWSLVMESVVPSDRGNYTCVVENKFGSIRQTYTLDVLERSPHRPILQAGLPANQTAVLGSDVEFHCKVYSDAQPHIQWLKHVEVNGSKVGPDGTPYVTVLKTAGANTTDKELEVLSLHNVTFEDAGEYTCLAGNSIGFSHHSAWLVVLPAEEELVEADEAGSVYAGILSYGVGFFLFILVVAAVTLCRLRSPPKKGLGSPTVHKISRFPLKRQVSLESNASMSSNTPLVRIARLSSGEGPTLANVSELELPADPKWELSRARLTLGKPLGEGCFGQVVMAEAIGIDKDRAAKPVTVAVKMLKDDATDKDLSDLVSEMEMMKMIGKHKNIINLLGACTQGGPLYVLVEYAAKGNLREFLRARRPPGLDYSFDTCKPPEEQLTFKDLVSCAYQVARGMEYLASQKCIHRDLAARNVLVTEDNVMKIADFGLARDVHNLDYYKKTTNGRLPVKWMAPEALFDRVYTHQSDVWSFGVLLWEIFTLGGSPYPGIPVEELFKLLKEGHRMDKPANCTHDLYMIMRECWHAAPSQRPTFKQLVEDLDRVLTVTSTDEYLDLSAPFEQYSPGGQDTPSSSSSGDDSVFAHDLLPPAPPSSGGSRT
Test: Broad selectivity panel, 32P incorporation
Format: biochemical
Settings: 0.1 μM compound, 40 μM ATP; read-out: Percent inhibition FGFR3
Protocol: as §1

Compound | inhibition at 0.1 µM
CS(=O)(=O)N1CCC(Nc2nccc(-c3c(-c4ccc(F)cc4)nc4occn34)n2)CC1 [CCLXXIX] | 9%

Same assay, conditions: 1 μM compound, 40 μM ATP; read-out: Percent inhibition FGFR3

Compound | inhibition at 1 µM
CS(=O)(=O)N1CCC(Nc2nccc(-c3c(-c4ccc(F)cc4)nc4occn34)n2)CC1 [CCLXXIX] | 10%

Biological target: T3, JNK3-His (Homo sapiens, UniProt P53779)
T3 construct: His; purchased Upstate (Charlottesville, Va.)
T3 sequence (P53779 whole entry): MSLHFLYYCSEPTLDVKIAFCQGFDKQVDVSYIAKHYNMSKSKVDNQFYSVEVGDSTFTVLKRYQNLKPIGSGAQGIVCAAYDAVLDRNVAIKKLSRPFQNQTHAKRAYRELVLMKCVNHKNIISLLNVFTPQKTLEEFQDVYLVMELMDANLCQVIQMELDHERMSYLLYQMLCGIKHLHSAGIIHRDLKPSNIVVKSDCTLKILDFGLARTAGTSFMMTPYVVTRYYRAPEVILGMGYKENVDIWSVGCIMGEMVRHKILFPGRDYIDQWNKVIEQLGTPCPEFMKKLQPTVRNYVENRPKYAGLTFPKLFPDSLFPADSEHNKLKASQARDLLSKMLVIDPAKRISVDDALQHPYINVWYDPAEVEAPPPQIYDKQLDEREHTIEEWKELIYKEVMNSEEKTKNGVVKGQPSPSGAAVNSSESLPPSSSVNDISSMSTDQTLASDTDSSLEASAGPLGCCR
Test: Broad selectivity panel, 32P incorporation
Format: biochemical
Settings: 0.1 μM compound, 40 μM ATP; read-out: Percent inhibition JNK3-His
Protocol: as §1

Compound | inhibition at 0.1 µM
CS(=O)(=O)N1CCC(Nc2nccc(-c3c(-c4ccc(F)cc4)nc4occn34)n2)CC1 [CCLXXIX] | 97%

Same assay, conditions: 1 μM compound, 40 μM ATP; read-out: Percent inhibition JNK3-His

Compound | inhibition at 1 µM
CS(=O)(=O)N1CCC(Nc2nccc(-c3c(-c4ccc(F)cc4)nc4occn34)n2)CC1 [CCLXXIX] | 101%

Biological target: T4, Lyn (Homo sapiens, UniProt P07948)
T4 construct: purchased Upstate (Charlottesville, Va.)
T4 sequence (P07948 whole entry, species assumed): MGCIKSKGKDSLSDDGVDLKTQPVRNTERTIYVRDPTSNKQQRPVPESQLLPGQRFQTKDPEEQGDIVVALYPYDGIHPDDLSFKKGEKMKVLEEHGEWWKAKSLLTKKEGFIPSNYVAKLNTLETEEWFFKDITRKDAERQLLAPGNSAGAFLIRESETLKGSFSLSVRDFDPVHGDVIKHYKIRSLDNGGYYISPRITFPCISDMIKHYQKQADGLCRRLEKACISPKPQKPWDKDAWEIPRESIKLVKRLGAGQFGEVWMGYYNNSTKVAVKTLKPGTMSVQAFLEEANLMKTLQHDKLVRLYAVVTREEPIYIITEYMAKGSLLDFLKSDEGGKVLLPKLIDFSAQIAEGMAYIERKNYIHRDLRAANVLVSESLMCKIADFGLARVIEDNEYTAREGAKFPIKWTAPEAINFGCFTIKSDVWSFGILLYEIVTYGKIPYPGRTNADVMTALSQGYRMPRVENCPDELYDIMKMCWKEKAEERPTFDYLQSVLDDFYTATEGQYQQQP
Test: Broad selectivity panel, 32P incorporation
Format: biochemical
Settings: 0.1 μM compound, 40 μM ATP; read-out: Percent inhibition Lyn
Protocol: as §1

Compound | inhibition at 0.1 µM
CS(=O)(=O)N1CCC(Nc2nccc(-c3c(-c4ccc(F)cc4)nc4occn34)n2)CC1 [CCLXXIX] | -7%

Same assay, conditions: 1 μM compound, 40 μM ATP; read-out: Percent inhibition Lyn

Compound | inhibition at 1 µM
CS(=O)(=O)N1CCC(Nc2nccc(-c3c(-c4ccc(F)cc4)nc4occn34)n2)CC1 [CCLXXIX] | -13%

Biological target: T5, MAPK1 (Homo sapiens, UniProt P27361)
T5 construct: purchased Upstate (Charlottesville, Va.)
T5 sequence (P27361 whole entry): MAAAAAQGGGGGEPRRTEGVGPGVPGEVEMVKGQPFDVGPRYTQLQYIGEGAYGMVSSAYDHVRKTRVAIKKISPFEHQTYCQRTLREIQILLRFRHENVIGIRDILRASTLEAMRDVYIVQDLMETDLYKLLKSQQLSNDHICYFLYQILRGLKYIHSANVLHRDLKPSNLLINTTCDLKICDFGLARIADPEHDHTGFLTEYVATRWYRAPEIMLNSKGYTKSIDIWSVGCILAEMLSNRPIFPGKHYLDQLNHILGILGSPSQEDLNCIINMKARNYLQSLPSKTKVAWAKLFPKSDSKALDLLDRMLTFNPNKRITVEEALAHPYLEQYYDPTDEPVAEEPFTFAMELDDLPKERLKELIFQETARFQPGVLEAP
Test: Broad selectivity panel, 32P incorporation
Format: biochemical
Settings: 0.1 μM compound, 40 μM ATP; read-out: Percent inhibition MAPK1
Protocol: as §1

Compound | inhibition at 0.1 µM
CS(=O)(=O)N1CCC(Nc2nccc(-c3c(-c4ccc(F)cc4)nc4occn34)n2)CC1 [CCLXXIX] | 29%

Same assay, conditions: 1 μM compound, 40 μM ATP; read-out: Percent inhibition MAPK1

Compound | inhibition at 1 µM
CS(=O)(=O)N1CCC(Nc2nccc(-c3c(-c4ccc(F)cc4)nc4occn34)n2)CC1 [CCLXXIX] | 79%

Biological target: T6, PKB α (Homo sapiens, UniProt P31749)
T6 construct: purchased Upstate (Charlottesville, Va.)
T6 sequence (P31749 whole entry, species assumed): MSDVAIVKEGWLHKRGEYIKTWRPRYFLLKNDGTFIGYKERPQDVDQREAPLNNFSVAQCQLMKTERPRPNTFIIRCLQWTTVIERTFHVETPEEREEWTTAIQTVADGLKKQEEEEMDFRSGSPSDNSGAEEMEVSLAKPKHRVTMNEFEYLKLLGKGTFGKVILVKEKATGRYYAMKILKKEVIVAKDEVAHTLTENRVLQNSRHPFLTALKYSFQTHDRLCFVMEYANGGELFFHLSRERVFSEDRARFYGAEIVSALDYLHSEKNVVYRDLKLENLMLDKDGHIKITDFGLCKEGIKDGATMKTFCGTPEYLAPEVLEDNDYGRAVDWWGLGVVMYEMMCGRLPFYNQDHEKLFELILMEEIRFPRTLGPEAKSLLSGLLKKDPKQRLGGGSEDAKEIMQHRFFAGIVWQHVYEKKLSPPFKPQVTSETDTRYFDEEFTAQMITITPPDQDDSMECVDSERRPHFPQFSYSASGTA
Test: Broad selectivity panel, 32P incorporation
Format: biochemical
Settings: 0.1 μM compound, 40 μM ATP; read-out: Percent inhibition PKB α
Protocol: as §1

Compound | inhibition at 0.1 µM
CS(=O)(=O)N1CCC(Nc2nccc(-c3c(-c4ccc(F)cc4)nc4occn34)n2)CC1 [CCLXXIX] | 5%

Same assay, conditions: 1 μM compound, 40 μM ATP; read-out: Percent inhibition PKB α

Compound | inhibition at 1 µM
CS(=O)(=O)N1CCC(Nc2nccc(-c3c(-c4ccc(F)cc4)nc4occn34)n2)CC1 [CCLXXIX] | 6%

Biological target: T7, PKBβ (Homo sapiens, UniProt P31751)
T7 construct: purchased Upstate (Charlottesville, Va.)
T7 sequence (P31751 whole entry, species assumed): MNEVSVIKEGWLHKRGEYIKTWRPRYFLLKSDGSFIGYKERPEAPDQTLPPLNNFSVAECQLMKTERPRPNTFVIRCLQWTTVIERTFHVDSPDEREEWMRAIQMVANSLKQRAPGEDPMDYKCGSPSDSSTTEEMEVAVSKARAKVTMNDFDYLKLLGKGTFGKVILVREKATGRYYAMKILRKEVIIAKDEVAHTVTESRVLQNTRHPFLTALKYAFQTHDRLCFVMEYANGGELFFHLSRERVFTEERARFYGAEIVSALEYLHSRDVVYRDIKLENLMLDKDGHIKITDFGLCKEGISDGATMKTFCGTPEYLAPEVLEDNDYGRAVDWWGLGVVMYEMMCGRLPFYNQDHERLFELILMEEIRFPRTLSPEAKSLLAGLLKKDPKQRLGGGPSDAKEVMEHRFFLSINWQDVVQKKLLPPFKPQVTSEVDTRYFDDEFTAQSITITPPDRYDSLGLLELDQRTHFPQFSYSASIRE
Test: Broad selectivity panel, 32P incorporation
Format: biochemical
Settings: 0.1 μM compound, 40 μM ATP; read-out: Percent inhibition PKBβ
Protocol: as §1

Compound | inhibition at 0.1 µM
CS(=O)(=O)N1CCC(Nc2nccc(-c3c(-c4ccc(F)cc4)nc4occn34)n2)CC1 [CCLXXIX] | 0%

Same assay, conditions: 1 μM compound, 40 μM ATP; read-out: Percent inhibition PKBβ

Compound | inhibition at 1 µM
CS(=O)(=O)N1CCC(Nc2nccc(-c3c(-c4ccc(F)cc4)nc4occn34)n2)CC1 [CCLXXIX] | -30%

Test system: ROCK-II
Test: Broad selectivity panel, 32P incorporation
Format: biochemical
Settings: 0.1 μM compound, 40 μM ATP
Protocol: as §1

Compound | Percent inhibition ROCK-II
CS(=O)(=O)N1CCC(Nc2nccc(-c3c(-c4ccc(F)cc4)nc4occn34)n2)CC1 [CCLXXIX] | 10

Same assay, conditions: 1 μM compound, 40 μM ATP

Compound | Percent inhibition ROCK-II
CS(=O)(=O)N1CCC(Nc2nccc(-c3c(-c4ccc(F)cc4)nc4occn34)n2)CC1 [CCLXXIX] | 12

Biological target: T8, ZAP-70 (Homo sapiens, UniProt P43403)
T8 construct: purchased Upstate (Charlottesville, Va.)
T8 sequence (P43403 1-619): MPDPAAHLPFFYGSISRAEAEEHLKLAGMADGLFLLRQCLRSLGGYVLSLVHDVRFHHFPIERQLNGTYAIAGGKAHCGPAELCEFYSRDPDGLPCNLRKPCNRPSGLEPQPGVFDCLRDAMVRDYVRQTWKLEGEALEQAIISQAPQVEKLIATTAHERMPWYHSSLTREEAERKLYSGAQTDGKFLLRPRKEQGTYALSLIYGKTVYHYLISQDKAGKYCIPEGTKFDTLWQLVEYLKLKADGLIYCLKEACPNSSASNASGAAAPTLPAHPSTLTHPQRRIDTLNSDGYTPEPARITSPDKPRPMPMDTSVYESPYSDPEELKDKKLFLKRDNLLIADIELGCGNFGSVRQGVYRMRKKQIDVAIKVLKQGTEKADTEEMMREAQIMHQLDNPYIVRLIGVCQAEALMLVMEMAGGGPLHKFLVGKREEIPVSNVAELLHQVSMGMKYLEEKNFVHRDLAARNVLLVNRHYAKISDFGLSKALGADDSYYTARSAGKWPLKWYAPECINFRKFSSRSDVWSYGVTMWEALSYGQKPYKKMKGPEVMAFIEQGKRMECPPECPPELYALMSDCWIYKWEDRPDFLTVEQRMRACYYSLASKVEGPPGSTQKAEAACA
Test: Broad selectivity panel, 32P incorporation
Format: biochemical
Settings: 0.1 μM compound, 40 μM ATP; read-out: Percent inhibition ZAP-70
Protocol: as §1

Compound | inhibition at 0.1 µM
CS(=O)(=O)N1CCC(Nc2nccc(-c3c(-c4ccc(F)cc4)nc4occn34)n2)CC1 [CCLXXIX] | 13%

Same assay, conditions: 1 μM compound, 40 μM ATP; read-out: Percent inhibition ZAP-70

Compound | inhibition at 1 µM
CS(=O)(=O)N1CCC(Nc2nccc(-c3c(-c4ccc(F)cc4)nc4occn34)n2)CC1 [CCLXXIX] | -1%

Biological target: T9, c-RAF (Homo sapiens, UniProt P04049)
T9 construct: purchased Upstate (Charlottesville, Va.)
T9 sequence (P04049 whole entry, species assumed): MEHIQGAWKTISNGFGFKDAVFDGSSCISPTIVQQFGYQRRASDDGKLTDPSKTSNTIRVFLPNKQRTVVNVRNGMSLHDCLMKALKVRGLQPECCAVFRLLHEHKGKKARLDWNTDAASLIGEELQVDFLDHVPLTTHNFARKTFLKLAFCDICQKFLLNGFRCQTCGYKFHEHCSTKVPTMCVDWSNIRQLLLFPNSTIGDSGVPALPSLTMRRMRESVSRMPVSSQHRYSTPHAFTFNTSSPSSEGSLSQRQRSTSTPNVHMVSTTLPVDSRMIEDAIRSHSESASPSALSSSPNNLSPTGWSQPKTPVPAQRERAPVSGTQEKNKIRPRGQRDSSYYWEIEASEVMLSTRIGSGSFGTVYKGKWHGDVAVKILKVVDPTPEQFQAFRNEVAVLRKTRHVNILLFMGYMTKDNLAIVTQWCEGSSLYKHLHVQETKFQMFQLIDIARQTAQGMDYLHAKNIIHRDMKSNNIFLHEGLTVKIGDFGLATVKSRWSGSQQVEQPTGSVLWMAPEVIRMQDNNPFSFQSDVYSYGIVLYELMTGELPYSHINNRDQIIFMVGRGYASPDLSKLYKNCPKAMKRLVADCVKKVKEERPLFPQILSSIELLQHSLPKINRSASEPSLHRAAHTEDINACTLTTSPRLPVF
Test: Broad selectivity panel, 32P incorporation
Format: biochemical
Settings: 0.1 μM compound, 40 μM ATP; read-out: Percent inhibition c-RAF
Protocol: as §1

Compound | inhibition at 0.1 µM
CS(=O)(=O)N1CCC(Nc2nccc(-c3c(-c4ccc(F)cc4)nc4occn34)n2)CC1 [CCLXXIX] | 32%

Same assay, conditions: 1 μM compound, 40 μM ATP; read-out: Percent inhibition c-RAF

Compound | inhibition at 1 µM
CS(=O)(=O)N1CCC(Nc2nccc(-c3c(-c4ccc(F)cc4)nc4occn34)n2)CC1 [CCLXXIX] | 83%

Test system: p70S6K
Test: Broad selectivity panel, 32P incorporation
Format: biochemical
Settings: 0.1 μM compound, 40 μM ATP
Protocol: as §1

Compound | Percent inhibition p70S6K
CS(=O)(=O)N1CCC(Nc2nccc(-c3c(-c4ccc(F)cc4)nc4occn34)n2)CC1 [CCLXXIX] | 9

Same assay, conditions: 1 μM compound, 40 μM ATP

Compound | Percent inhibition p70S6K
CS(=O)(=O)N1CCC(Nc2nccc(-c3c(-c4ccc(F)cc4)nc4occn34)n2)CC1 [CCLXXIX] | 10
